Source: patent US9790169B2, “IDO inhibitors” (BRISTOL-MYERS SQUIBB COMPANY, priority 2015, dated 2017)

What follows are molecules tested against human IDO1 (Homo sapiens, UniProt P14902) (assay: Assessment of human IDO-1 inhibitory activity in Hela cells (Interferon-gamma stimulated HeLa cells, Ehrlich reagent, absorbance 490 nm)). Conditions: Hela Human IDO-1 cellular assay.
Type: cell-based
Parameters: endogenous in cells; host or cells: HeLa cells stimulated with interferon-gamma
Protocol: Exemplary compounds were tested for inhibition of IDO activity.
Assessment of Human IDO-1 Inhibitory Activity in Hela Cells
HeLa cells were seeded at 20,000 cells per 30 μL per well with RPMI/phenol red free media containing 10% FBS in a 384-well tissue culture plate (black with clear bottoms). 50 nL of compound was added to cells and incubated at 37° C. for one hour. 20 μL of the recombinant human Interferon-gamma (R&D System, Cat. #285-IF, at final concentration of 10 ng/ml) or recombinant murine Interferon-gamma (PEPROTECH® Inc., Cat. #315-05, final concentration of 5 ng/ml) was added to activate IDO signaling. The cells were incubated for 18 hours in 37° C. incubator with 5% CO2.
Compound treatment was stopped by adding 5 μl trichloroacetic acid to a final concentration of 3%. Subsequently, the cell plate was further incubated at 50° C. for 30 minute. An equal volume supernatant (20 μL) and 2% (w/v) Ehrlich reagent (4-dimethylaminobenzaldehyde) in glacial acetic acid were mixed in a new clear bottom 384-well plate. This plate was incubated at room temperature for 30 minutes. Absorbance at 490 nm was measured on Envision plate reader.
Compound IC50 values were calculated using counts from unstimulated (no INF-gamma treatment) wells as 100% inhibition. INF-gamma treatment without compound treatment as 0% inhibition.

Chain of human IDO1 (P14902 whole entry): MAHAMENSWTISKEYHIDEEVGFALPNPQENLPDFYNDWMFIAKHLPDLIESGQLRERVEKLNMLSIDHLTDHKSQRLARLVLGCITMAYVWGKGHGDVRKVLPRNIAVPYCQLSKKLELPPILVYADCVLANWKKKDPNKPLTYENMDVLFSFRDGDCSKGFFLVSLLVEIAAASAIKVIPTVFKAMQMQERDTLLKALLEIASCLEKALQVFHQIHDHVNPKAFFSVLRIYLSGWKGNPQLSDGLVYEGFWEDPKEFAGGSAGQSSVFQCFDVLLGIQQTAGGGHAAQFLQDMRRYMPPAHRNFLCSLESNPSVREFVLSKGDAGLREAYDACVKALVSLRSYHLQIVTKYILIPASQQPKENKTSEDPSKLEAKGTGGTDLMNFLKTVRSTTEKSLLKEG

Compound	IC50 [µM]
CCOc1ncc(Nc2cc(C(CC)CC(=O)O)cnc2N(CC(C)C)CC(C)C)cn1 (racemic) [Example 1376, (+/−)-3-(6-(Diisobutylamino)-5-((2-ethoxypyrimidin-5-yl)amino)pyridin-3-yl)pentanoic acid]	< 0.005
COCCN(c1ccc(C(COC)CC(=O)O)cc1NC(=O)Nc1ccc(C)cc1)C1CCOCC1 (single isomer, unassigned) [Example 261 Enantiomer 1, 4-Methoxy-3-(4-((2-methoxyethyl)(tetrahydro-2H-pyran-4-yl)amino)-3-(3-(p-tolyl)ureido)phenyl)butanoic acid]	> 0.05
CCN(c1cc(F)c([C@@H](COC)CC(=O)O)cc1Nc1ccc(C#N)cc1)C1CCOCC1 (single isomer, unassigned) [Example 843, 3-(5-((4-Cyanophenyl)amino)-4-(ethyl(tetrahydro-2H-pyran-4-yl)amino)-2-fluorophenyl)-4-methoxybutanoic acid]	< 0.005
CCN(c1ccc([C@@H](COC)CC(=O)O)cc1Nc1ccc(C#N)cc1F)C1CCOCC1 (single isomer, unassigned) [Example 355]	< 0.005
CCCOc1ncc(Nc2cc(C(C)CC(=O)O)ccc2N(CC)C2CCOCC2)cn1 (single isomer, unassigned) [Example 621, 3-(4-(ethyl(tetrahydro-2H-pyran-4-yl)amino)-3-((2-propoxypyrimidin-5-yl)amino)phenyl)butanoic acid]	< 0.05
CCOc1ncc(Nc2cc(C(CC)CC(=O)O)ccc2N2CCC(C)CC2)cn1 (single isomer, unassigned) [Example 43, 3-(3-((2-ethoxypyrimidin-5-yl)amino)-4-(4-methylpiperidin-1-yl)phenyl)pentanoic acid]	> 0.05
CCOc1ncc(Nc2cc([C@H](CC)CNS(=O)(=O)C(F)(F)F)ccc2N(CC)C2CCOCC2)cn1 [Example 1329, (S)-N-(2-(3-((2-ethoxypyrimidin-5-yl)amino)-4-(ethyl(tetrahydro-2H-pyran-4-yl)amino)phenyl)butyl)-1,1,1-trifluoromethanesulfonamide]	< 0.005
CC[C@H](CC(=O)O)c1ccc(N(CC)C2CCOCC2)c(Nc2ccc(Cl)cn2)c1 (single isomer, unassigned) [Example 503]	< 0.005
CCOc1ncc(Nc2cc([C@H](CC)CC#N)ccc2N(CC)C2CCOCC2)cn1 [Example 1333, (R)-3-(3-((2-Ethoxypyrimidin-5-yl)amino)-4-(ethyl(tetrahydro-2H-pyran-4-yl)amino)phenyl)pentanenitrile]	> 0.05
CCc1ncc(Nc2cc([C@@H](CC)CC(=O)O)ccc2N(CC)C2CCOCC2)cn1 (single isomer, unassigned) [Example 1362]	< 0.005
CCN(c1ccc(C(C)CC(=O)O)cc1Nc1ccc(F)cc1)C1CCOCC1 (single isomer, unassigned) [Example 627, 3-(4-(ethyl(tetrahydro-2H-pyran-4-yl)amino)-3-((4-fluorophenyl)amino)phenyl) butanoic acid]	< 0.005
CCC(CC(=O)O)c1ccc(N2CCN(C(=O)OC(C)(C)C)CC2)c(Nc2ccc(C#N)cc2)c1 (single isomer, unassigned) [Example 674 Enantiomer 1, 3-(4-(4-(tert-Butoxycarbonyl)piperazin-1-yl)-3-((4-cyanophenyl)amino)phenyl)pentanoic acid]	< 0.05
CCOc1ncc(Nc2cc([C@@H](CC(=O)O)C(F)(F)F)ccc2N(CC)C2CCOCC2)cn1 [Example 600, (R)-3-(3-((2-Ethoxypyrimidin-5-yl)amino)-4-(ethyl(tetrahydro-2H-pyran-4-yl)amino)phenyl)-4,4,4-trifluorobutanoic acid]	< 0.005
CCN(c1ccc(C(C)(C)CC(=O)O)cc1Nc1ccc(C#N)cc1)C1CCC(C)(O)CC1 (stereo not shown) [Example 4, 3-(3-((4-cyanophenyl)amino)-4-(ethyl(4-hydroxy-4-methylcyclohexyl)amino)phenyl)-3-methylbutanoic acid]	< 0.05
CCC1COCCN1c1ccc([C@H](COC)CC(=O)O)cc1Nc1ccc(C#N)cc1 (single isomer, unassigned) [Example 1303]	< 0.05
C[C@@H]1CN(c2ccc(C(CC(=O)O)C3CC3)cc2NC(=O)Nc2ccc(Cl)cc2F)C[C@H](C)O1 (single isomer, unassigned) [Example 252]	> 0.05
CCCN(c1ccc([C@H](COC)CC(=O)O)cc1Nc1ccc2nc(C)sc2c1)C1CCOCC1 (single isomer, unassigned) [Example 570]	< 0.05
CCN(c1ccc(C(C)(C)CC(=O)O)cc1Nc1ccc2c(c1)OC(F)(F)O2)C1CCS(=O)(=O)CC1 [Example 179, 3-(3-((2,2-difluorobenzo[d][1,3]dioxol-5-yl)amino)-4-((1,1-dioxidotetrahydro-2H-thiopyran-4-yl)(ethyl)amino)phenyl)-3-methylbutanoic acid]	< 0.005
CCCN(c1ccc([C@H](CC)CC(=O)O)cc1Nc1ccc2nc(C)sc2c1)C1CCOCC1 (single isomer, unassigned) [Example 548]	< 0.05

Compound	IC50 [µM]
COCC(CC(=O)O)c1ccc(N2C[C@@H](C)O[C@@H](C)C2)c(NC(=O)Nc2ccc(Cl)cc2F)c1 (single isomer, unassigned) [Example 606]	> 0.05
COCC(CC(=O)O)c1ccc(N2CCOC(C)(C)C2)c(Nc2ccc(C#N)cc2)c1 (single isomer, unassigned) [Example 1316, 3-(3-((4-cyanophenyl)amino)-4-(2,2-dimethylmorpholino)phenyl)-4-methoxybutanoic acid]	> 0.05
CCC1COCCN1c1ccc([C@H](COC)CC(=O)O)cc1Nc1ccc(F)cc1 (single isomer, unassigned) [Example 1293]	> 0.05
CCN(c1ccc(C(C)CC(=O)O)cc1Nc1ccc2c(c1)OC(F)(F)O2)C1CCOCC1 (single isomer, unassigned) [Example 628, 3-(3-((2,2-difluorobenzo[d] [1,3]dioxol-5-yl)amino)-4-(ethyl(tetrahydro-2H-pyran-4-yl)amino)phenyl)butanoic acid]	< 0.005
CCC1COCCN1c1ccc([C@@H](COC)CC(=O)O)cc1Nc1ccc(C#N)cc1 (single isomer, unassigned) [Example 1295]	< 0.05
CC[C@@H](CC(=O)O)c1ccc(N(CC2CC2)CC(C)(C)O)c(Nc2ccc(F)cc2)c1 (single isomer, unassigned) [Example 269]	< 0.05
CCN(c1ccc([C@@H](COC)CC(=O)O)cc1Nc1ccc(C#N)c(OCC(F)(F)F)c1)C1CCOCC1 (single isomer, unassigned) [Example 372]	< 0.05
CCC1COCCN1c1ccc([C@H](COC)CC(=O)O)cc1Nc1ccc(F)cn1 (single isomer, unassigned) [Example 1294]	> 0.05
CCOc1ncc(Nc2cc([C@H](CC)CC(C)(C)O)ccc2N(CC)C2CCOCC2)cn1 (single isomer, unassigned) [Example 1368]	> 0.05
CCN(c1ccc(C2(CC(=O)O)CCOCC2)cc1Nc1ccc(OC)nc1)C1CCOCC1 [Example 156, 2-(4-(4-(ethyl(tetrahydro-2H-pyran-4-yl)amino)-3-((6-methoxypyridin-3-yl)amino)phenyl)tetrahydro-2H-pyran-4-yl)acetic acid]	> 0.05
CCN(c1ccc(C(COC)CC(=O)O)cc1Nc1ccc(Cl)cc1)C1CCS(=O)(=O)CC1 (single isomer, unassigned) [Example 170, 3-(3-((4-chlorophenyl)amino)-4-((1,1-dioxidotetrahydro-2H-thiopyran-4-yl)(ethyl)amino)phenyl)-4-methoxybutanoic acid]	< 0.005
CCC(CC(=O)O)c1cc(Nc2cnc(OCC3CC3)nc2)c(N(CC)C2CCOCC2)cc1F (single isomer, unassigned) [Example 858, 3-(5-((2-(cyclopropyl-methoxy)pyrimidin-5-yl)amino)-4-(ethyl(tetra-hydro-2H-pyran-4-yl)amino)-2-fluorophenyl) pentanoic acid]	< 0.005
CC(CC(=O)O)c1ccc(N2C[C@@H](C)O[C@@H](C)C2)c(NC(=O)Nc2ccc(Cl)cc2F)c1 (single isomer, unassigned) [Example 749 Enantiomer 1]	> 0.05
COCC(CC(=O)O)c1ccc(N2CCOC(C)C2)c(Nc2ccc(C#N)cc2)c1 (single isomer, unassigned) [Example 1312, 3-(3-((4-cyanophenyl)amino)-4-(2-methylmorpholino)phenyl)-4-methoxybutanoic acid]	> 0.05
CC[C@@H](CC(=O)O)c1ccc(N(CC2CC2)CC(C)(C)O)c(Nc2ccc(C#N)cc2)c1 (single isomer, unassigned) [Example 268]	< 0.005
C[C@@H]1CN(c2ccc(C(CC(=O)O)C3CC3)cc2Nc2ccc(C#N)cc2)C[C@H](C)O1 (single isomer, unassigned) [Example 247]	> 0.05
CCN(c1ccc([C@@H](COC)CC(=O)O)cc1Nc1ccc(F)cc1F)C1CCOCC1 (single isomer, unassigned) [Example 365]	< 0.05
Cc1ccc(NC(=O)Nc2cc(C(CC(=O)O)C3CC3)ccc2N2C[C@@H](C)O[C@@H](C)C2)cc1 (single isomer, unassigned) [Example 251 Enantiomer 1]	> 0.05
